This note sets out measurements from US9988347B2, “Herbicidally active arylcarboxylic acid amides” (BAYER CROPSCIENCE AKTIENGESELLSCHAFT, priority 2014, dated 2018).

Common to all, as to assay type: in vivo
Test [1] deals with POLCO (Polygonum convolvulus). The test is described as follows: Pre-emergence herbicidal action against harmful plants. The conditions noted are these: dosage 320 g/ha. The source says: (§1) 1. Pre-Emergence Herbicidal Action Against Harmful Plants
(§2) Seeds of monocotyledonous and dicotyledonous weed plants and crop plants are laid out in wood-fiber pots in sandy loam and covered with soil. The compounds of the invention and, for comparative purposes, the compounds known from the prior art, formulated in the form of wettable powders (WP) or as emulsion concentrates (EC), are then applied to the surface of the covering soil as aqueous suspension or emulsion at a water application rate equating to 600 to 800 I/ha with addition of 0.2% of wetting agent. After the treatment, the pots are placed in a greenhouse and kept under good growth conditions for the trial plants. The damage to the test plants is scored visually after a test period of 3 weeks by comparison with untreated controls (herbicidal activity in percent (%): 100% activity=the plants have died, 0% activity=like control plants).

Test [2] has as its system CYPES (Cyperus serotinus). The test is described as above. The conditions noted are these: dosage 320 g/ha.
Text: as §1, §2

Test [3] concerns ALOMY (Alopecurus myosuroides). The description is as above. The conditions noted are these: dosage 320 g/ha, scored visually after 3 weeks (Table C).
Text: as §1, §2

For test [4], the system named is AMARE (Amaranthus retroflexus). Described as above. The conditions noted are these: 504 h, dosage 320 g/ha.
Text: as §1, §2

The test system of a further test is VERPE (Veronica persica). The test is described as above. The conditions noted are these: dosage 320 g/ha, scored visually after 3 weeks (Table E).
Text: as §1, §2

The test system of test [5] is MATIN (Matricaria inodora). Described as above. The conditions noted are these: dosage 320 g/ha, scored visually after 3 weeks (Table F).
Text: as §1, §2

The test system of test [6] is PHBPU (Pharbitis purpureum). The test is described as above. The conditions noted are these: dosage 320 g/ha, scored visually after 3 weeks (Table I).
Text: as §1, §2

Test [7] concerns LOLMU (Lolium multiflorum). The test is described as above. The conditions noted are these: dosage 320 g/ha.
Text: as §1, §2

For test [8], the system named is MATIN (Matricaria inodora). The test is described as follows: Post-emergence herbicidal action against harmful plants. The conditions noted are these: dosage 80 g/ha. On the procedure: (§3) 2. Post-Emergence Herbicidal Action Against Harmful Plants
(§4) Seeds of monocotyledonous and dicotyledonous weed and crop plants are laid out in sandy loam in wood-fiber pots, covered with soil and cultivated in a greenhouse under good growth conditions. 2 to 3 weeks after sowing, the test plants are treated at the one-leaf stage. The compounds of the invention, formulated in the form of wettable powders (WP) or as emulsion concentrates (EC), are then sprayed onto the green parts of the plants in the form of an aqueous suspension or emulsion at a water application rate equating to 600 to 800 I/ha, with addition of 0.2% wetting agent. After the test plants have been left to stand in the greenhouse under optimal growth conditions for about 3 weeks, the action of the preparations is assessed visually in comparison to untreated controls (herbicidal action in percent (%): 100% activity=the plants have died, 0% activity=like control plants).

The next test relates to STEME (Stellaria media). The description is as above. The conditions noted are these: dosage 80 g/ha, assessed visually after about 3 weeks (Table K). The protocol:
as §3, §4

Test [9] deals with POLCO (Polygonum convolvulus). Described as above. The conditions noted are these: dosage 80 g/ha, assessed visually after about 3 weeks (Table L). The protocol: as §3, §4
The subject of another test is AVEFA (Avena fatua). Description: Pre-emergence herbicidal action against harmful plants. The conditions noted are these: dosage 320 g/ha, scored visually after 3 weeks vs untreated controls (100% = plants have died, 0% = like control plants).
Text: as §1, §2

Where [10] appears, read: scored visually after 3 weeks (Table B).
The mark [11] stands for this setting: scored visually after 3 weeks (Table C).
Where [12] appears, read: scored visually after 3 weeks (Table E).
[13] abbreviates: scored visually after 3 weeks (Table F).
Where [14] appears, read: scored visually after 3 weeks (Table I).
The mark [15] stands for this setting: assessed visually after about 3 weeks (Table K).
Setting [16] is: assessed visually after about 3 weeks (Table L).
[17] abbreviates: scored visually after 3 weeks vs untreated controls (100% = plants have died, 0% = like control plants).

On to `CSc1c(I)ccc(C(=O)Nc2nnnn2C)c1C`, for which the “Activity against POLCO” value in test [1] (setting [10]) is given as 20%. The “Activity against CYPES” value in test [2] (setting [10]) is 0%.

As for `CSc1c(N(C)C)ccc(C(=O)Nc2nnnn2C)c1C`, the “Activity against POLCO” value in [1] (setting [10]) is on record as 0%. The “Activity against CYPES” value in test [2] (setting [10]) came to 30%.

On to `COSc1c(C2CC2)ccc(C(=O)Nc2nnnn2C)c1C`, for which, in test [3], the “Activity against ALOMY” value is 90%. For the same molecule, the pest or weed control (commonly how far the test organism was held down) at 320 g/ha in [4] (setting [11]) is 100%.

For the molecule `CSc1c(C2CC2)ccc(C(=O)Nc2ncnn2C)c1C`, the pest or weed control at 320 g/ha in test [4] (setting [12]) was 100%. Also, the “Activity against VERPE” value in the test with VERPE (Veronica persica) came out at 90%.

In turn, `CSc1c(C#N)ccc(C(=O)Nc2ncnn2C)c1C` showed a pest or weed control at 320 g/ha in test [4] (setting [12]) of 80%. The “Activity against VERPE” value in the test with VERPE (Veronica persica) was 70%.

In test [4] (setting [12]), `CSc1c(I)ccc(C(=O)Nc2ncnn2C)c1C` showed a pest or weed control at 320 g/ha of 60%. The “Activity against VERPE” value in the test on VERPE (Veronica persica) was 0%.

Regarding `CSc1c(C=O)ccc(C(=O)Nc2ncnn2C)c1C`, in test [4] (setting [12]), the pest or weed control at 320 g/ha was 30%. For the same molecule, the “Activity against VERPE” value in the test on VERPE (Veronica persica) was 0%.

For the molecule `CSc1c(C2OCCO2)ccc(C(=O)Nc2ncnn2C)c1C`, the pest or weed control at 320 g/ha in [4] (setting [12]) is 0%. Further, the “Activity against VERPE” value with VERPE (Veronica persica) is 0%.

On to `COSc1c(C2CC2)ccc(C(=O)Nc2ncnn2C)c1C`, for which the “Activity against MATIN” value in test [5] is listed as 80%. Moreover, in test [4] (setting [13]), the pest or weed control at 320 g/ha stood at 90%.

Regarding `COSc1c(Cl)ccc(C(=O)Nc2ncnn2C)c1C`, the “Activity against MATIN” value in test [5] is 30%. Also, the pest or weed control at 320 g/ha in [4] (setting [13]) was 70%.

For the molecule `COSc1c(C#N)ccc(C(=O)Nc2ncnn2C)c1C`, the “Activity against MATIN” value in test [5] is reported as 0%. The molecule further had a pest or weed control at 320 g/ha in test [4] (setting [13]) of 60%.

As to `COSc1c(C=O)ccc(C(=O)Nc2ncnn2C)c1C`, the “Activity against MATIN” value in test [5] is listed as 0%. The pest or weed control at 320 g/ha in test [4] (setting [13]) was found to be 40%.

As for `COSc1c(C2OCCO2)ccc(C(=O)Nc2ncnn2C)c1C`, in [5], the “Activity against MATIN” value was found to be 0%. In [4] (setting [13]), this molecule showed a pest or weed control at 320 g/ha of 20%.

As for `CCn1nnnc1NC(=O)c1ccc(C2CC2)c(SOC)c1C`, the “Activity against PHBPU” value in test [6] was determined as 100%. Besides, in test [7] (setting [14]), the “Activity against LOLMU” value turned out to be 100%.

On to `CCn1nnnc1NC(=O)c1ccc(C)c(SOC)c1C`, for which the “Activity against PHBPU” value in test [6] is listed as 60%. Besides, the “Activity against LOLMU” value in [7] (setting [14]) came to 30%.

For the molecule `CSc1c(C2CC2)ccc(C(=O)Nc2ncc(C)o2)c1C`, the “Activity against MATIN” value in test [8] (setting [15]) is 80%. The “Activity against STEME” value with STEME (Stellaria media) came out at 90%.

Take `CSc1c(Cl)ccc(C(=O)Nc2nnc(C)o2)c1C`: the “Activity against MATIN” value in test [8] (setting [15]) is listed as 60%. Also, the “Activity against STEME” value with STEME (Stellaria media) is on record as 70%.

With `CSc1c(Br)ccc(C(=O)Nc2nnc(C)o2)c1C`, in [8] (setting [15]), the “Activity against MATIN” value is recorded as 40%. The “Activity against STEME” value in the test with STEME (Stellaria media) turned out to be 60%.

Regarding `CSc1c(C2CC2)ccc(C(=O)Nc2nnc(C)o2)c1C`, the “Activity against POLCO” value in test [9] was 60%. Moreover, in [8] (setting [16]), the “Activity against MATIN” value came out at 80%.

Turning to `CSc1c(I)ccc(C(=O)Nc2nnc(C)o2)c1C`, the “Activity against POLCO” value in [9] amounted to 20%. For the same molecule, the “Activity against MATIN” value in [8] (setting [16]) is given as 60%.

As for `CSc1c(C(F)(F)F)ccc(C(=O)Nc2nnc(C)o2)c1C`, the “Activity against POLCO” value in test [9] was 0%. The “Activity against MATIN” value in test [8] (setting [16]) is 60%.

For `CCn1nnnc1NC(=O)c1ccc(C2CC2)c(SC)c1C`, in test [7] (setting [17]), the “Activity against LOLMU” value amounted to 90%. Further, in the test on AVEFA (Avena fatua), the “Activity against AVEFA” value is listed as 100%.

With `CSc1c(C2CC2)ccc(C(=O)Nc2nnnn2C)c1C` [drawing 18], the “Activity against POLCO” value in test [1] (setting [17]) was 90%. Moreover, in test [2] (setting [17]), the “Activity against CYPES” value is 90%.

Consider `CSc1cccc(C(=O)Nc2nnnn2C)c1C` [drawing 19, reference compound], for which the “Activity against POLCO” value in [1] (setting [17]) is recorded as 0%. Besides, the “Activity against CYPES” value in [2] (setting [17]) was 30%.

Turning to `CSc1c(C2CC2)ccc(C(=O)Nc2nnnn2C)c1C` [drawing 21], the “Activity against POLCO” value in test [1] (setting [10]) was 90%. In addition, the “Activity against CYPES” value in test [2] (setting [10]) stood at 90%.

In the case of `CSc1c(C2OCCO2)ccc(C(=O)Nc2nnnn2C)c1C` [drawing 24], in test [1] (setting [10]), the “Activity against POLCO” value is 30%. Besides, in test [2] (setting [10]), the “Activity against CYPES” value is 0%.

As to `CSc1c(C=O)ccc(C(=O)Nc2nnnn2C)c1C` [drawing 25], the “Activity against POLCO” value in test [1] (setting [10]) is listed as 0%. In [2] (setting [10]), the “Activity against CYPES” value came out at 0%.

In the case of `CSc1cccc(C(=O)Nc2nnnn2C)c1C` [drawing 27], the “Activity against ALOMY” value in test [3] came to 20%. Besides, the pest or weed control at 320 g/ha in test [4] (setting [11]) is 20%.

Consider `CSc1c(C2OCCO2)ccc(C(=O)Nc2nnnn2C)c1C` [drawing 28], for which the “Activity against ALOMY” value in test [3] came to 0%. In [4] (setting [11]), this molecule returned a pest or weed control at 320 g/ha of 0%.

For the molecule `CSc1c(C=O)ccc(C(=O)Nc2nnnn2C)c1C` [drawing 29], in test [3], the “Activity against ALOMY” value was determined as 0%. Moreover, the pest or weed control at 320 g/ha in test [4] (setting [11]) worked out at 0%.

For `CSc1c(Br)ccc(C(=O)Nc2nnnn2C)c1C` [reference compound], in test [1] (setting [17]), the “Activity against POLCO” value is 70%. The “Activity against CYPES” value in test [2] (setting [17]) is on record as 0%.

As for `CCn1nnnc1NC(=O)c1ccc(C)c(SC)c1C` [reference compound], the “Activity against LOLMU” value in [7] (setting [17]) amounted to 30%. Besides, the “Activity against AVEFA” value in the test on AVEFA (Avena fatua) was determined as 60%.
